Assay results published in patent publication US20160213680A1, “COMPOSITIONS AND METHODS USING FLUMAZENIL WITH OPIOID ANALGESICS FOR TREATING PAIN AND/OR ADDICTION, AND WITH DIVERSION AND/OR OVERDOSE MITIGATION” (SOTERIAN PHARMACEUTICALS, LLC, priority 2015, published 2016).
Values joined by “and” are separate entries in the source; they are usually repeats but may differ in a detail not shown here. Equal values may be shown once. “Also recorded” adds a separate entry of the source.

How the values were obtained:
[1] = test system: patients who had been taking methadone; experiment: Example 2: conversion of methadone patients to the sublingual tablet (withdrawal, VAS pain); format: in vivo, human; conditions: patients withdrawing from methadone
Description: […]. These patients took an average of 9 days to convert before methadone withdrawal was completely eliminated.
Patients who had been taking 50 mg to 140 mg per day of methadone were first titrated down with Ultram (e.g., via 2 to 3 tablets of Ultram 50 mg administered every 6 hours) for four days. Following this titration period, the patients were given injections containing 0.3 mg buprenorphine and 60 mg torodol to see if further time was needed before the sublingual tablets comprising buprenorphine and flumazenil could be started without risk of precipitating withdrawal. […]. Stomach tightness, nausea, and restless legs were the most common complaints from these patients.

[2] = in vivo, cited from earlier work
[3] = test system: sedation associated with benzodiazepines (midazolam); format: in vivo, human
Description: Subjects were pretreated with about 10 mg flumazenil orally. After 30 minutes midazolam (a benzodiazepine) 0.3 mg was administered and repeated every 30 minutes until sedative effects were noticed by the subject or reported by the investigator. Oral flumazenil of about 10 mg was able to block midazolam for an average of 150 minutes.
This example study was repeated with about 30 mg flumazenil orally (2 subjects) and sublingually (3 subjects). Allowing the sublingual flumazenil treatment option was thought to avoid first pass hepatic metabolism and potentially increase Cmax (maximum [or peak] serum concentration), shorten Tmax (time at which the Cmax is observed) and is expected to increase the area under the curve for flumazenil in the serum. In this dose range study subjects were again pretreated with about 30 mg flumazenil orally or sublingually. After 30 minutes midazolam (Versed) 0.3 mg was administered and repeated every 30 minutes until sedative effects were noticed by the subject or reported by the investigator.

[4] = Tablet pilot studies of flumazenil tolerability; format: in vivo, human; conditions: tablet formulations, compared with IV flumazenil history
Source text: Note, several historical physiological ideas about IV flumazenil may be much different compared to the formulations of flumazenil used in the various pharmaceutical dosage units. […] When patients are currently prescribed opiates, such patients are instructed to avoid benzodiazepines and the pharmaceutical dosage units disclosed herein may make physicians more confident that such patients will remain compliant with that instruction.

CCOC(=O)c1ncn2c1CN(C)C(=O)c1cc(F)ccc1-2 [flumazenil, ethyl 8-fluoro-5-methyl-6-oxo-5,6-dihydro-4H-benzo[f]imidazo[1,5-a][1,4]diazepine-3-carboxylate]
effect of flumazenil on the pain and withdrawal relieving effect of buprenorphine [1]: noticeably enhanced | oral and/or gastrointestinal bioavailability ([2]; po): very low | elimination half-life [2]: 1.4 h | duration of blockade from Versed ([3]; about 3 mg IV flumazenil): 60 min | duration of midazolam blockade / protection from sedation (average) ([3]; about 10 mg flumazenil orally, midazolam 0.3 mg every 30 minutes): 150 min | sedation at the 330 minute interval ([3]; about 30 mg flumazenil orally or sublingually, all subjects): measurable (but reduced) sedation | duration of midazolam blockade, individual subjects ([3]; about 30 mg flumazenil orally, the 2 subjects): 240 min and 270 min | time for flumazenil to clear the serum (average) ([3]; human, in vivo, po): about 3 hours | anxiety, panic attacks, dysphoria, disorientation [4]: does not cause anxiety nor panic attacks; also recorded: no dysphoria nor disorientation

Cc1ncc2n1-c1ccc(Cl)cc1C(c1ccccc1F)=NC2 [midazolam]
time to maximum sedation after IV midazolam dosing ([3]; midazolam 0.3 mg IV): 5 min
